SMILES strings stand for the structures. Where a name gives a salt, the structure may show the parent alone.

For this assay, the system named is SB.msgc-1. Briefly: AC50 for growth inhibition (viability) (log10 M); higher = less potent. Conditions: SB.msgc-1 (sporadic gastric cancer). The method, boiled down: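 Hereditary or sporadic patient-derived gastric cancer cells (500 cells in 5 μL medium per 1536 well) received 23 nL compound in DMSO by pintool. Dosing was 11 threefold dilutions starting at a final 46 μM. After 48 h, CellTiter-Glo was added for 30 min at room temperature and luminescence read on a ViewLux. Log half-maximal activity concentration came from a four-parameter fit of DMSO-normalised viability, keeping only high-quality curve classes.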
`CC(N[C@H]1CCCC[C@@H]1NC(=O)c1ccc(Cl)cc1)c1cccc2ccccc12` (stereo partly specified) [Calhex 231]: the “AC50 for growth inhibition (log10 M)” value is -5.93. To `Clc1ccc(C(c2ccc(Cl)cc2)[n+]2ccn(CC(OCc3ccc(Cl)cc3Cl)c3ccc(Cl)cc3Cl)c2)cc1` (stereo unspecified) [Calmidazolium chloride] belongs -4.68. Then `NC(=O)c1nnn(Cc2cc(Cl)c(C(=O)c3ccc(Cl)cc3)c(Cl)c2)c1N` [Carboxyamidotriazole], with -5.03; and `Cc1ccc(-c2cc(C(F)(F)F)nn2-c2ccc([S+](N)(=O)[O-])cc2)cc1` [Celecoxib], with -4.78; and `O=C(O)CCCc1ccc(N(CCCl)CCCl)cc1` [Chlorambucil], with -5.33.

Regarding `C=C[C@H]1CN2CCC1C[C@H]2[C@H](O)c1ccnc2ccccc12` (stereo partly specified) [Cinchonidine], the “AC50 for growth inhibition (log10 M)” value was -4.98. To `CN(C)CCCC1(c2ccc(F)cc2)OCc2cc(C#N)ccc21` (stereo unspecified) [Citalopram hydrobromide] belongs -4.83; to `CCCCCCCCCCCCCCCC(=O)O[C@@H]1[C@@H](O)[C@@H](O)[C@@H]([C@H](NC(=O)[C@@H]2C[C@@H](CCC)CN2C)[C@H](C)Cl)O[C@@H]1SC.Cl` [Clindamycin palmitate], -4.78. Regarding `Clc1ccccc1C(c1ccccc1)(c1ccccc1)n1ccnc1` [Clotrimazole], the “AC50 for growth inhibition (log10 M)” value was -4.83. Then `Nc1ncnc2c1ncn2[C@@H]1O[C@H](CO)C[C@H]1O` [Cordycepin], with -4.73; and `C=C1C(=O)OC2/C=C(/C)CC/C=C(/C)CCC12` (stereo unspecified) [Costunolide], with -4.68; and `CC1(COc2ccc3c(c2)ncn3-c2ccc3cccc(N4CCC(N)CC4)c3n2)COC1` [Crenolanib], with -7.38. Then `C/C=C/C(=O)N(CC)c1ccccc1C` [Crotamiton], with -4.98.

`COc1cc(/C=C/C(=O)CC(=O)/C=C/c2ccc(O)c(OC)c2)ccc1O` [Curcumin]: the “AC50 for growth inhibition (log10 M)” value was -4.37.

As to `NC\1=N\C(=O)N(\C=C1)[C@@H]2O[C@H](CO)[C@@H](O)[C@@H]2O` [Cytarabine], the “AC50 for growth inhibition (log10 M)” value is -7.18.

Consider `NC(=O)c1ccc(-c2nc(-c3ccc4c(c3)OCCO4)c(-c3ccccn3)[nH]2)cc1` [D-4476], for which the “AC50 for growth inhibition (log10 M)” value was -4.73. To `CCCCCCCCCCCCCC(=O)N[C@H](CO)[C@H](O)c1ccc([N+](=O)[O-])cc1` [D-NMAPPD] belongs -4.93; to `CNC(=O)c1cc(Oc2ccc(NC(=O)Nc3cc(C(C)(C)C)nn3-c3ccc4ncccc4c3)c(F)c2)ccn1` [DCC-2036], -5.63. Then `CCCCCN(CCC12CC3CC(CC(C3)C1)C2)C(=O)NCCCc1ccncc1` [DE-096], with -4.73; and `CO[C@@H](C(=O)N1Cc2[nH]nc(NC(=O)c3ccc(N4CCN(C)CC4)cc3)c2C1)c1ccccc1` [Danusertib], with -5.53; and `O=C(/C=C/c1cccnc1)NCCCCC1CCN(C(=O)c2ccccc2)CC1` [Daporinad], with -6.08.

Consider `CC(C)CN(C[C@@H](O)[C@H](Cc1ccccc1)NC(=O)O[C@H]1CO[C@H]2OCC[C@H]21)S(=O)(=O)c1ccc(N)cc1` [Darunavir], for which the “AC50 for growth inhibition (log10 M)” value was -5.63. As to `Cc1nc(Nc2ncc(C(=O)Nc3c(C)cccc3Cl)s2)cc(N2CCN(CCO)CC2)n1` [Dasatinib], the “AC50 for growth inhibition (log10 M)” value is -5.73.

As to `O=C(O)c1ccc(-n2nc(-c3ccccc3O)nc2-c2ccccc2O)cc1` [Deferasirox], the “AC50 for growth inhibition (log10 M)” value was -4.93. To `COc1ccc2c(c1)CN(C)CC2c1ccc(Cl)c(Cl)c1` (stereo unspecified) [Diclofensine] belongs -4.73. Take `C/C=C(/C(=C/C)c1ccc(O)cc1)c1ccc(O)cc1` [Dienestrol]: the “AC50 for growth inhibition (log10 M)” value was -5.08. To `OCCN(CCO)c1nc(N2CCCCC2)c2nc(N(CCO)CCO)nc(N3CCCCC3)c2n1` [Dipyridamole] belongs -4.68; to `C[C@@H]1CCO[C@H]2CN\3/C=C(/C(=O)NCC4=C(F)C=C(F)C=C4)C(=O)\C(=C3C(=O)N12)O` [Dolutegravir], -4.78; to `C[C@@H]1[C@H]\2[C@H](O)[C@H]3[C@H](N(C)C)\C(=C(C(N)=O)/C(=O)[C@@]3(O)\C(=C2C(=O)C4=C(O)C=CC=C14)O)O` [Doxycycline], -4.68. As to `NC(=O)C1CCCc2c1[nH]c1ccc(Cl)cc21` (stereo unspecified) [EX-527], the “AC50 for growth inhibition (log10 M)” value is -4.78. Then `CS[C@H]1SC[C@@H]2C(=O)N(C)[C@H](C(C)C)C(=O)OC[C@H](NC(=O)c3cnc4ccccc4n3)C(=O)N[C@H](C)C(=O)N(C)[C@H]1C(=O)N(C)[C@H](C(C)C)C(=O)OC[C@H](NC(=O)c1cnc3ccccc3n1)C(=O)N[C@H](C)C(=O)N2C` [Echinomycin], with -8.33; and `NCCCC(N)(C(=O)O)C(F)F` (stereo unspecified) [Eflornithine Hydrochloride], with -4.78; and `CC1=NN(c2ccc(C)c(C)c2)C(=O)/C1=N/Nc1cccc(-c2cccc(C(=O)O)c2)c1O` [Eltrombopag olamine], with -4.83. To `CCCCCCCCCCCC/1=C(O)/C(=O)/C=C(O)\C1=O` [Embelin] belongs -6.03. To `COc1cc([C@@H]2c3cc4c(cc3[C@@H](O[C@@H]3O[C@@H]5CO[C@@H](C)O[C@H]5[C@H](O)[C@H]3O)[C@H]3COC(=O)[C@H]23)OCO4)cc(OC)c1O` [Etoposide] belongs -5.33; to `C[C@]12CC[C@H]3[C@@H](CC(=C)\C4=C\C(=O)\C=C/[C@]34C)[C@@H]1CCC2=O` [Exemestane], -4.83. Take `COC1=CC=CC=C1C2=CC=CC(=C2)C/3=C(O)/C4=CC(=C(Cl)C=C4NC3=O)C#N` [FASN MRK]: the “AC50 for growth inhibition (log10 M)” value is -4.37. In the case of `C=CC[C@@H]1/C=C(\C)C[C@H](C)C[C@H](OC)[C@H]2O[C@@](O)(C(=O)C(=O)N3CCCC[C@H]3C(=O)O[C@H](/C(C)=C/[C@@H]3CC[C@@H](O)[C@H](OC)C3)[C@H](C)[C@@H](O)CC1=O)[C@H](C)C[C@@H]2OC` [FK-506], the “AC50 for growth inhibition (log10 M)” value was -5.18. Then `N=C(CCSCc1csc(N=C(N)N)n1)N[S+](N)(=O)[O-]` [Famotidine], with -4.78. Take `Clc1ccc(C(Cn2ccnc2)OCc2ccc(Sc3ccccc3)cc2)c(Cl)c1` (stereo unspecified) [Fenticonazole nitrate]: the “AC50 for growth inhibition (log10 M)” value was -4.73. Then `OC1=CC2=C(C=C1)C(=O)\C(=C(O2)\C3=CC(=C(O)C=C3)O)O` [Fisetin], with -4.63. To `NC/1=N/C(=O)N/C=C1F` [Flucytosine] belongs -4.88; to `CCOC(=O)c1ncn2c1CN(C)C(=O)c1cc(F)ccc1-2` [Flumazenil], -4.63. To `CC(C)n1c(/C=C/[C@H](O)C[C@H](O)CC(=O)[O-])c(-c2ccc(F)cc2)c2ccccc21` [Fluvastatin] belongs -5.38; to `CCOP(=O)(OCC)C(C)NC(=O)N(CCCl)N=O` (stereo unspecified) [Fotemustine], -5.13. With `CN(C)C1=C(Br)C=C(C=C1)C\2NC3=C(\C4=C2C(=O)CC(C)(C)C4)C5=CC=CC=C5C=C3` (stereo unspecified) [GLS968], the “AC50 for growth inhibition (log10 M)” value is -5.23.

Turning to `Cc1c(CN2CCN([S+](C)(=O)[O-])CC2)sc2c(N3CCOCC3)nc(-c3cnc(N)nc3)nc12` [GNE-477], the “AC50 for growth inhibition (log10 M)” value was -7.68. As for `NC(=O)c1cccc(-c2cc(Nc3ccc(OC(F)(F)F)cc3)ncn2)c1` [GNF 2], the “AC50 for growth inhibition (log10 M)” value is -4.73. Then `O=C(Nc1nc2cccc(-c3ccc(CN4CC[S+](=O)([O-])CC4)cc3)n2n1)C1CC1` [GPLG-0634], with -4.73; and `CC(C)(C)OC(=O)CN(Cc1ccc(Cl)cc1)Cc1ccc([N+](=O)[O-])s1` [GSK-4112], with -4.68; and `Cc1cc(SCc2sc(-c3ccc(C(F)(F)F)c(F)c3)nc2C)ccc1OCC(=O)O` [GW-0742], with -4.78.

With `O=C1Nc2ccc(I)cc2/C1=C/c1cc(Br)c(O)c(Br)c1` [GW-5074], the “AC50 for growth inhibition (log10 M)” value is -4.93. Then `N\C1=N\C2=C(N=C[N]2COC(CO)CO)C(=O)N1` [Ganciclovir], with -5.28; and `CNC1[C@@H](O)C(O[C@@H]2C(O)C(O[C@H]3O[C@H]([C@@H](C)NC)CC[C@H]3N)[C@@H](N)C[C@H]2N)OC[C@]1(C)O` (stereo partly specified) [Gentamycin sulfate], with -4.73. Then `O=c1cc(O)c(Cl)c[nH]1` [Gimeracil], with -4.68; and `Cc1cnc(C(=O)NCCc2ccc([S+](=O)([O-])NC(=O)NC3CCCCC3)cc2)cn1` [Glipizide], with -4.78; and `COCCOC(=O)C/1=C(C)/NC/2=C(C1C3=CC=CC(=C3)O)/C(=O)CC(C2)C4=C(OC)C=CC=C4` (stereo unspecified) [HPI-1], with -4.73. On to `CN(C)CCN(Cc1ccc(Cl)cc1)c1ccccn1.Cl` [Halopyramine], for which the “AC50 for growth inhibition (log10 M)” value is -4.68. As to `CC(C)(C)OC(=O)Nc1ccc(-c2cc(C(=O)NCCCCCCC(=O)NO)no2)cc1` [ISOX], the “AC50 for growth inhibition (log10 M)” value is -5.58. Then `Cc1cc(/C=c2/sc3nc4ccccc4n3c2=O)c(C)n1-c1ccccc1` [ITX3], with -4.88; and `CC1=CC=C2N=C(NC(=O)CS\C3=N\C4=C(\SCC4)C(=O)N3C5=CC=CC=C5)SC2=C1` [IWP-2], with -5.18.
